Among the data in US9409866B2, “Pyridine-2-amides useful as CB2 agonists” (Hoffmann-La Roche Inc., priority 2012, dated 2016) are EC50 values, retold here.

The structures appear in SMILES notation. Read-outs that look alike come from different tables or passages of the source. Where only a bound is given, the exact number is not on record here.

The EC50 is the concentration giving half of the maximal effect.

One experiment addresses human CB1 receptors (Homo sapiens (Human), UniProt P21554). The experiment is described as follows: functional cAMP assay, CHO cells expressing human CB1. Format: cell-based. Conditions: functional cAMP assay, CHO cells expressing human CB1. The method, boiled down:
(§1)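 Agonist EC50 values came from cAMP levels in CHO cells carrying human CB1 or CB2, after 30 min of compound treatment at 30 °C in the presence of 1 mM IBMX. Detection used a time-resolved FRET cAMP kit read against a cAMP standard curve.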

A further experiment has as its target human CB2 receptors (Homo sapiens (Human), UniProt P34972). Briefly: functional cAMP assay, CHO cells expressing human CB2. It counts as cell-based. Conditions: Human CB2 EC50 (uM). The method, boiled down: as §1
(In general: cAMP levels reflect the balance of adenylyl cyclase and phosphodiesterase activity.)

Chain of human CB1 receptors (P21554 whole entry): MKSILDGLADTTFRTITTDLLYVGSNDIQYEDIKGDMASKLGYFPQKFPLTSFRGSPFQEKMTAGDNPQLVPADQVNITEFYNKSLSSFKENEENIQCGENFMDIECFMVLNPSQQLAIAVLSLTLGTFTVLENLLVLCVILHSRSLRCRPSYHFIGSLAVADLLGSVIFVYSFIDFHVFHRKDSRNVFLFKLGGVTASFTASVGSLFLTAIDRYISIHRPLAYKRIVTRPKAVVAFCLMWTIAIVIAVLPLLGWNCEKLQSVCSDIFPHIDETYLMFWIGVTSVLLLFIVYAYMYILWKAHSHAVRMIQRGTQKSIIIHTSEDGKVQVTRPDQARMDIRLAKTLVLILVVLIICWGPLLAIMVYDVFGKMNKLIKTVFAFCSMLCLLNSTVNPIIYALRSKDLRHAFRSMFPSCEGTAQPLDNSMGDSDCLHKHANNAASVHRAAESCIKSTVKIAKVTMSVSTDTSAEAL
Chain of human CB2 receptors (P34972 whole entry): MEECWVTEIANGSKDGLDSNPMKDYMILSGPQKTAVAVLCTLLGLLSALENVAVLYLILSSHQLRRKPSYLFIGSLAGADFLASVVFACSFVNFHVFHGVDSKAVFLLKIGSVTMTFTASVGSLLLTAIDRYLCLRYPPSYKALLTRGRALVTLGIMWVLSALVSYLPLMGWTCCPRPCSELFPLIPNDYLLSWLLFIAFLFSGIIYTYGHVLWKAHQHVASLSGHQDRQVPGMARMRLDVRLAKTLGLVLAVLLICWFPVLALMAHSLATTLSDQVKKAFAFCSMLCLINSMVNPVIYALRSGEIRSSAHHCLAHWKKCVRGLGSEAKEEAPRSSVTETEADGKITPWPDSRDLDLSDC

Regarding `CC(CC(N)=O)(NC(=O)c1cc(OCC(F)F)c(C2CC2)cn1)C1CC1` (single isomer, unassigned) [Example 272, N-[4-amino-2-cyclopropyl-4-oxobutan-2-yl]-5-cyclopropyl-4-(2,2-difluoroethoxy)pyridine-2-carboxamide], the values for the EC50 on human CB1 receptors (Human CB1 EC50 (uM)) and on human CB2 receptors were greater than 10 µM and 0.0495 µM, respectively.

`CC(CC(N)=O)(NC(=O)c1cc(OCC(F)F)c(C2CC2)cn1)C1CC1` (single isomer, unassigned) [Example 273, N-[4-amino-2-cyclopropyl-4-oxobutan-2-yl]-5-cyclopropyl-4-(2,2-difluoroethoxy)pyridine-2-carboxamide]: the EC50 at human CB1 receptors (read-out: Human CB1 EC50) was greater than 10 µM; at human CB2 receptors, 0.0017 µM.

`CC(CC(N)=O)(NC(=O)c1cc(OCC(F)(F)F)c(N2CC(F)(F)C2)cn1)C1CC1` (single isomer, unassigned) [Example 275, N-[4-amino-2-cyclopropyl-4-oxobutan-2-yl]-5-(3,3-difluoroazetidin-1-yl)-4-(2,2,2-trifluoroethoxy)pyridine-2-carboxamide]: the results for the half-maximal effective concentration (EC50) at human CB1 receptors (Human CB1 EC50 (uM)) and on human CB2 receptors were greater than 10 µM and 0.0227 µM, respectively.

On to `CC(CC(N)=O)(NC(=O)c1cc(OCC(F)(F)F)c(N2CC(F)(F)C2)cn1)C1CC1` (single isomer, unassigned) [Example 276, N-[4-amino-2-cyclopropyl-4-oxobutan-2-yl]-5-(3,3-difluoroazetidin-1-yl)-4-(2,2,2-trifluoroethoxy)pyridine-2-carboxamide], for which the EC50 on human CB1 receptors (read-out: Human CB1 EC50) was greater than 10 µM; at human CB2 receptors it was 0.137 µM.

On to `C[C@H](Oc1cc(C(=O)NC(C)(CC(N)=O)C2CC2)ncc1C1(F)COC1)C(F)(F)F` (single isomer, unassigned) [Example 277], for which the EC50 is greater than 10 µM at human CB1 receptors (Human CB1 EC50 (uM)) and 0.0431 µM at human CB2 receptors.

With `C[C@H](Oc1cc(C(=O)NC(C)(CC(N)=O)C2CC2)ncc1C1(F)COC1)C(F)(F)F` (single isomer, unassigned) [Example 278], the values for the EC50 at human CB1 receptors (read-out: Human CB1 EC50) and at human CB2 receptors were greater than 10 µM and 0.0929 µM, respectively.

For `Cc1nc(C(C)(CS(C)(=O)=O)NC(=O)c2cc(OCCF)c(C3CC3)cn2)no1` (single isomer, unassigned) [Example 279, 5-cyclopropyl-4-(2-fluoroethoxy)-N-[2-(5-methyl-1,2,4-oxadiazol-3-yl)-1-methylsulfonylpropan-2-yl]pyridine-2-carboxamide], the EC50 on human CB1 receptors (Human CB1 EC50 (uM)) is greater than 10 µM; on human CB2 receptors, 0.173 µM.

`Cc1nc(C(C)(CS(C)(=O)=O)NC(=O)c2cc(OCCF)c(C3CC3)cn2)no1` (single isomer, unassigned) [Example 280, 5-cyclopropyl-4-(2-fluoroethoxy)-N-[2-(5-methyl-1,2,4-oxadiazol-3-yl)-1-methylsulfonylpropan-2-yl]pyridine-2-carboxamide]: the EC50 is greater than 10 µM at human CB1 receptors (read-out: Human CB1 EC50) and 0.0786 µM on human CB2 receptors.

For `Cc1nc(C(C)(CS(C)(=O)=O)NC(=O)c2cc(OCC(F)F)c(C3CC3)cn2)no1` (single isomer, unassigned) [Example 283, 5-cyclopropyl-4-(2,2-difluoroethoxy)-N-(2-(5-methyl-1,2,4-oxadiazol-3-yl)-1-(methylsulfonyl)propan-2-yl)picolinamide], the EC50 is greater than 10 µM at human CB1 receptors (Human CB1 EC50 (uM)) and 0.0533 µM on human CB2 receptors.

With `Cc1nc(C(C)(CS(C)(=O)=O)NC(=O)c2cc(OCC(F)F)c(C3CC3)cn2)no1` (single isomer, unassigned) [Example 284, 5-cyclopropyl-4-(2,2-difluoroethoxy)-N-(2-(5-methyl-1,2,4-oxadiazol-3-yl)-1-(methylsulfonyl)propan-2-yl)picolinamide], the EC50 on human CB1 receptors (read-out: Human CB1 EC50) is greater than 10 µM; at human CB2 receptors, 0.0453 µM.

Consider `Cc1nc(C(C)(CC2CC2)NC(=O)c2cc(OC(C)CF)c(C3CC3)cn2)no1` (single isomer, unassigned) [Example 287, 5-cyclopropyl-N-(1-cyclopropyl-2-(5-methyl-1,2,4-oxadiazol-3-yl)propan-2-yl)-4-(1-fluoropropan-2-yloxy)picolinamide], for which the results for the concentration giving a half-maximal response (EC50) on human CB1 receptors (Human CB1 EC50 (uM)) and at human CB2 receptors were greater than 10 µM and 0.0014 µM, respectively.
